Data: patent US7122533B2, “Cosalane compounds and methods for their use” (The United States of America as represented by the …, priority 1999, dated 2006)
Like-named read-outs stand apart in the source and are kept apart here.

Tests used:
Assay type in all cases: cell-based
[1] = target: T1, human CCR1 (Homo sapiens, UniProt P32246); test: MIP1β-induced migration of CCR1 transfectants; conditions: compound at 1 μM, data not shown
T1 construct: expressed in transfected cells; host or cells: HEK-293
T1 sequence (P32246 1-355): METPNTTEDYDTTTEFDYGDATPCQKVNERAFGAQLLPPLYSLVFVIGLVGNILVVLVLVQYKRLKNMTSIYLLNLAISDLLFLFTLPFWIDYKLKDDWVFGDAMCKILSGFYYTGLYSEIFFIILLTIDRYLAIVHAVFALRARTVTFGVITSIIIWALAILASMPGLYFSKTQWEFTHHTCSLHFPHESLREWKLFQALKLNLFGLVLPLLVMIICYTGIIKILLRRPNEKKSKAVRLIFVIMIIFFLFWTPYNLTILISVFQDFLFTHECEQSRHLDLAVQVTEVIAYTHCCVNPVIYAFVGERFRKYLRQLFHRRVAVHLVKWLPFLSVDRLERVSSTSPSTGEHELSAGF
Method: (§1) Human embryonic kidney cells 293 (HEK-293) transfected to express human CCR1, CCR3, or CCR5 receptors were cultured in Dulbecco's Modified Eagles Medium (DMEM, Biowhiftaker, Walkersville, Md.) containing 10% Fetal Bovine Serum (FBS, Hyclone, Logan, Utah), 2 mM glutamine and 100 U/ml penicillin and streptomycin (Quality Biologicals, Gaithersburg, Md.). Peripheral blood mononuclear cells were isolated from fresh normal donor apheresis packs by centrifugation over Ficoll. Monocytes were enriched by 85–95% using percoll fractionation (Pharmacia, Piscataway, N.J.).
(§2) The number of cells migrating to the chemokine mixtures was determined for binding media alone, and chemokine treated and untreated cells. HEK-293 cells transfected to express human CCR1, CCR3 or CCR5 receptors were resuspended in binding media at 7.5×10^5 cells/ml. Ten μm polyvinyl-free polycarbonate membranes (Neuro Probe) were treated with 47 ug/ml rat tail collagen type 1 (Collaborative Biomedical Products, Bedford, Md.) in RPMI-1640 overnight, dried and placed over the chemoattractants. The assembled chemotaxis chambers were incubated in a humidified CO2 incubator for 5.5–6 hours. After the incubation, the membranes were removed from the chemotaxis chamber assembly followed by gently removing cells from the upper side of the membrane. The stained and dried membrane was mounted and the cells on the underside of the membrane were counted at 200× magnification. The results are reported as the average number of cells per high powered field at a given chemokine concentration±standard deviation.
(§3) The ability of compound 3 to inhibit RANTES-induced migration of human embryonic kidney (HEK) cells transfected to express individual chemokine receptors was initially tested. Although the cosalane analog 3 (1 μM) had no effect on RANTES-induced migration of CCR5 transfectants, it inhibited 50% of RANTES-induced CCR1 transfectant migration (FIG. 2). In contrast, the MIP1α- and MIP1β-induced migration of CCR1 transfectants was not inhibited by compounds 1, 2 or 3 when tested at concentrations of 1 μM (data not shown).

[2] = target: T2, human CCR3 (Homo sapiens, UniProt P51677); test: eotaxin-induced CCR3/HEK-293 cell migration; conditions: eotaxin-induced CCR3/HEK-293 migration, figures
T2 construct: expressed in transfected cells; host or cells: HEK-293
T2 sequence (P51677 1-355): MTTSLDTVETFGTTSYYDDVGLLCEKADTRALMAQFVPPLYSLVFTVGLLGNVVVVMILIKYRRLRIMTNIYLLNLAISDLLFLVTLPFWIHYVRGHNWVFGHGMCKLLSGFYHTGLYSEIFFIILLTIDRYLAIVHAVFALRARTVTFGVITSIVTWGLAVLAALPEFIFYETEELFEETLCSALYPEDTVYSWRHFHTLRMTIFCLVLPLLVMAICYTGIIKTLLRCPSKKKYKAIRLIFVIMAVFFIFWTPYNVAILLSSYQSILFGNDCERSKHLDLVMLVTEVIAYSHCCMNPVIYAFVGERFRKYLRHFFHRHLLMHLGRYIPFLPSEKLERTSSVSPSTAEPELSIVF
Method: as §1, §2

[3] = tested on: human monocytes (MIP1-β-induced migration); test: MIP1-β-induced monocyte migration; conditions: compound at 1 μM, chemokine at 2.5 ng/ml, data not shown
Method: (§4) Monocyte chemotaxis was performed as previously described [Wang (1993) J. Immunol. 150:3022–3029]. Briefly, monocytes were resuspended in binding media (RPMI-1640 media containing 1% BSA, 25 mM HEPES, pH 8.0) at 1–2×10^6 cells/ml. […] Five micrometer polyvinyl-free polycarbonate membranes were placed over the chemokine mixtures. After the micro-chemotaxis chamber was assembled, 50 μl of cells were placed in the upper wells. The filled chemotaxis chambers were incubated in a humidified CO2 incubator for 90 minutes.
(§5) After incubating, the membranes were removed from the chemotaxis chamber assembly followed by gently removing the cells from the upper side of the membrane. Then cells on the lower side of the membrane were stained.
as §2, with “magnification.” for “magnification. The results are reported as the average number of cells per high powered field at a given chemokine concentration±standard deviation.”
(§6) It is noted that both MIP1-α and MIP1-β are ligands for CCR1, CCR5, and D6 (8).

[4] = target: T1, human CCR1; test: RANTES-induced CCR1/HEK-293 transfectant migration
Method: as §1, with “Ficoll.” for “Ficoll. Monocytes were enriched by 85–95% using percoll fractionation (Pharmacia, Piscataway, N.J.).”
as §2, with “magnification.” for “magnification. The results are reported as the average number of cells per high powered field at a given chemokine concentration±standard deviation.”

[5] = tested on: MCP-4/CCR2-mediated monocyte migration; test: MCP-4-induced human monocyte migration; conditions: FIG. 3
Method: (§7) Monocyte chemotaxis was performed as previously described [Wang (1993) J. Immunol. 150:3022–3029]. Briefly, monocytes were resuspended in binding media (RPMI-1640 media containing 1% BSA, 25 mM HEPES, pH 8.0) at 1–2×10^6 cells/ml. Chemokines, diluted in binding media, were mixed with cosalane or the indicated cosalane analog and placed in the lower wells of a micro-chemotaxis chamber (Neuro Probe, Cabin John, Md.). Five micrometer polyvinyl-free polycarbonate membranes were placed over the chemokine mixtures. After the micro-chemotaxis chamber was assembled, 50 μl of cells were placed in the upper wells. The filled chemotaxis chambers were incubated in a humidified CO2 incubator for 90 minutes.
as §5, §2
Although MCP-4 is known to bind to CCR2 and CCR3, fresh primary human monocytes only express high levels of CCR2.

[6] = tested on: human monocytes (MIP1-α-induced migration); test: MIP1-α-induced monocyte migration; conditions: compound at 1 μM, chemokine at 2.5 ng/ml, data not shown
Method: as §4, §5
as §2, with “magnification.” for “magnification. The results are reported as the average number of cells per high powered field at a given chemokine concentration±standard deviation.”
as §6

[7] = tested on: human monocytes (RANTES-induced migration); test: RANTES-induced monocyte migration (micro-chemotaxis chamber); conditions: for IC50: Homo sapiens, Monocyte, ≦ 5% standard error, NA = not active; for activity as inhibitors of RANTES-induced migration: discussion of Table 1
Method: as §1, §7, §5, §2

[8] = target: T1, human CCR1; test: MIP1α-induced migration of CCR1 transfectants; conditions: compound at 1 μM, data not shown
Method: as §1, §2, §3

[9] = tested on: human monocytes (acetylated RANTES-induced migration); test: monocyte migration induced by acetylated (modified) RANTES; conditions: acetylated RANTES 50–1000 ng/mL, FIG. 6
Method: as §7, §5
as §2, with “deviation. […]” for “deviation.”

[10] = ≦ 5% standard error, NA = not active, read-out: IC50 (μM) RANTES-Induced CCRI/HEK Migration

## CC(C)CCCC(C)[C@H]1CCC2C3CCC4C[C@@H](CCC=C(c5cc(Cl)c(OCc6cccc(C(=O)O)c6)c(C(=O)O)c5)c5cc(Cl)c(OCc6cccc(C(=O)O)c6)c(C(=O)O)c5)CC[C@]4(C)C3CC[C@@]21C (stereo partly drawn) [Compound 2]
[1]
  inhibition of MIP1β-induced migration of CCR1 transfectants: not inhibited
[2]
  inhibition of CCL11 (eotaxin) interaction with CCR3: inhibit
[3]
  inhibition of MIP1-β-induced monocyte migration: very weak inhibitor
  reduction in cell numbers, MIP1-β-induced monocyte migration: less than 10%
[4]; [10]
  IC50: 10 µM
[5]
  block of MCP-4/CCR2-mediated monocyte migration: block
[6]
  inhibition of MIP1-α-induced monocyte migration: not reduced
[7]
  IC50: 10 µM
  activity as inhibitors of RANTES-induced migration: retain activity
[8]
  inhibition of MIP1α-induced migration of CCR1 transfectants: not inhibited

## CC(C)CCCC(C)[C@H]1CCC2C3CCC4C[C@@H](CCC=C(c5cc(Cl)c(O)c(C(=O)NCC(=O)O)c5)c5cc(Cl)c(O)c(C(=O)NCC(=O)O)c5)CC[C@]4(C)C3CC[C@@]21C (stereo partly drawn) [Compound 12]
[4]
  IC50: 10 µM

## CSCC[C@H](NC(=O)c1cc(C(=CCC[C@H]2CC[C@@]3(C)C(CCC4C3CC[C@@]3(C)C4CC[C@@H]3C(C)CCCC(C)C)C2)c2cc(Cl)c(O)c(C(=O)N[C@@H](CCSC)C(=O)O)c2)cc(Cl)c1O)C(=O)O (stereo partly drawn) [Compound 15]
[7]
  IC50: 0.82 µM
  activity as inhibitors of RANTES-induced migration: retained activity

## CC(C)CCCC(C)[C@H]1CCC2C3CCC4C[C@@H](CCC=C(c5cc(Cl)c(OCc6cccc([N+](=O)[O-])c6)c(C(=O)O)c5)c5cc(Cl)c(OCc6cccc([N+](=O)[O-])c6)c(C(=O)O)c5)CC[C@]4(C)C3CC[C@@]21C (stereo partly drawn) [Compound 7]
[4]
  IC50: 5.7 µM
[7]
  IC50: 3.5 µM
  activity as inhibitors of RANTES-induced migration: retain activity

## CC(C)CCCC(C)[C@H]1CCC2C3CCC4C[C@@H](CCC=C(c5cc(Cl)c(OCc6ccc(-c7cccc(C(=O)O)c7)cc6)c(C(=O)O)c5)c5cc(Cl)c(OCc6ccc(-c7cccc(C(=O)O)c7)cc6)c(C(=O)O)c5)CC[C@]4(C)C3CC[C@@]21C (stereo partly drawn) [Compound 6]
[4]; [10]
  IC50: 9.1 µM
[7]
  IC50: 3 µM
  activity as inhibitors of RANTES-induced migration: retain activity

## CC(C)CCC[C@@H](C)[C@H]1CC[C@H]2[C@@H]3CC[C@H]4C[C@@H](CCC=C(c5cc(Cl)c(O)c(C(=O)O)c5)c5cc(Cl)c(O)c(C(=O)O)c5)CC[C@]4(C)[C@H]3CC[C@]12C [Compound 1, cosalane]
[9]; 30 μM compound
  inhibition of the activity of modified (acetylated) RANTES to attract monocytes: not inhibited
[1]
  inhibition of MIP1β-induced migration of CCR1 transfectants: not inhibited
[2]
  inhibition of CCL11 (eotaxin) interaction with CCR3: inhibit
[4]; [10]
  IC50: 0.26 µM
[5]
  block of MCP-4/CCR2-mediated monocyte migration: block
[7]
  IC50: 0.76 µM
[8]
  inhibition of MIP1α-induced migration of CCR1 transfectants: not inhibited

## CC(C)CCCC(C)C1CCC2C3CCC4CC(CCC=C(c5cc(Cl)c(OCc6ccc(C(=O)O)cc6)c(C(=O)O)c5)c5cc(Cl)c(OCc6ccc(C(=O)O)cc6)c(C(=O)O)c5)CCC4(C)C3CCC12C (stereo not drawn) [Compound 5]
[9]; 10 μM compound
  inhibition of the activity of modified (acetylated) RANTES to attract monocytes: no statistical difference
[3]
  inhibition of MIP1-β-induced monocyte migration: neither MiP1-α- nor MIP1-β-induced monocyte migration was inhibited
[6]
  inhibition of MIP1-α-induced monocyte migration: neither MiP1-α- nor MIP1-β-induced monocyte migration was inhibited
[7]
  activity as inhibitors of RANTES-induced migration: inactive

## CC(C)CCCC(C)[C@H]1CCC2C3CCC4C[C@@H](CCC=C(c5cc(Cl)c(OCc6cccc(B(O)O)c6)c(C(=O)O)c5)c5cc(Cl)c(OCc6cccc(B(O)O)c6)c(C(=O)O)c5)CC[C@]4(C)C3CC[C@@]21C (stereo partly drawn) [Compound 9]
[2]
  inhibition of CCL11 (eotaxin) interaction with CCR3: inhibit
[4]; [10]
  IC50: 4 µM
[7]
  IC50: 2.2 µM
